PMC4940876, “Post-paralysis tyrosine kinase inhibition with masitinib abrogates neuroinflammation and slows disease progression in inherited amyotrophic lateral sclerosis” (Journal of Neuroinflammation, 2016)

Target: T1, CSF-1R (colony-stimulating factor 1 receptor) (Homo sapiens, UniProt P07333)
T1 construct: gene CSF1R; CSF-1R kinase domain (AA 538–972), N-terminus 6HN-tagged, expressed in Sf21 cells
T1 sequence (P07333 538-972): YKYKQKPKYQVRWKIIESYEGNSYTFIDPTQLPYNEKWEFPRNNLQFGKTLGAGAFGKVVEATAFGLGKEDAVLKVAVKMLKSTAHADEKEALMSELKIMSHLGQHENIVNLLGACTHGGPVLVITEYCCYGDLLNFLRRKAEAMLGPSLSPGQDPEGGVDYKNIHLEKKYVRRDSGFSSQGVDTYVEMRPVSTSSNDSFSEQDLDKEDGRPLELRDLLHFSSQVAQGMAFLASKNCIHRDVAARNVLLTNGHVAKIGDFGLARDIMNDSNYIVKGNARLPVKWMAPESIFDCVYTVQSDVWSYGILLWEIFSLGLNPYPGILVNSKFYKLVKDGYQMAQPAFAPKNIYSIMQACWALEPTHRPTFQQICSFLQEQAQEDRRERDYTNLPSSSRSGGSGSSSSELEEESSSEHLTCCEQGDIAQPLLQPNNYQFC
Test: HTRF KinEASE kinase assay with biotinylated poly(Glu4Tyr) peptide, […] ATP
Assay type: biochemical

Cc1ccc(NC(=O)c2ccc(CN3CCN(C)CC3)cc2)cc1Nc1nc(-c2cccnc2)cs1 [masitinib]
IC50: 90 ± 35 nM
